From US20150065494A1, “AMINOSTYRYLBENZOFURAN DERIVATIVES AS INHIBITORS AGAINST BETA-AMYLOID FIBRIL FORMATION, AND PHARMACEUTICAL COMPOSITION COMPRISING SAME” (KOREA INSTITUTE OF SCIENCE AND TECHNOLOGY, priority 2012, published 2015)
Structures can show the parent of a compound that is named as a salt.

Assays:
beta-amyloid 42 (Aβ42) = target: T1, beta-amyloid 42 (Aβ42) (Homo sapiens, UniProt P05067); assay: Inhibitory effect on the formation of beta-amyloid fibrils in vitro (ThT fluorescence assay); format: biochemical; conditions: for inhibition at 10 µM / % Inhibition (10 μM): 10 μM compound, 25 μM Aβ42, ThT fluorescence; for Aβ42 % inhibition compared with comparative compound curcumin: 10 μM
T1 construct: Beta-amyloid 42 (Aβ42) was dissolved in dimethylsulfoxide (DMSO) to form a 250 mM Aβ42 stock solution
Protocol: Beta-amyloid 42 (Aβ42) was dissolved in dimethylsulfoxide (DMSO) to form a […] Aβ42 stock solution. In addition, ThT (thioflavin T) was dissolved in distilled water to obtain a concentration of 1 mM and subsequently diluted with 50 mM glycin buffer (pH 8.5) to yield a 5 μM ThT stock solution. 45 μL of PBS (phosphate buffer saline, pH 7.4) was added to each of a 96-well fluorescence microplate (white, F-bottom). 5 μL of the 250 μM Aβ42 stock solution was added to each well. The final concentration of each compound obtained in Examples was in a range of 10 to 0.001 μM by adding 2 μL of a solution, which was prepared by dissolving the subject compounds obtained in Examples in DMSO, to each well. At this time, the final concentration of Aβ42 in each well was 25 μM. The plate was then incubated for 1 hr at room temperature, and 150 μL of the 5 μM ThT stock solution was added to each well.
The fluorescence intensity of each well was determined with the multi-label fluorescence counter (LS-55 Luminescence spectrometer: Perkin Elmer) at an excitation wavelength of 450 nm (excitation slit width: 10 nm) and an emission wavelength of 482 nm (emission slit width: 10 nm), while adjusting counting time to 1 second. The control group was prepared by adding PBS solution, Aβ42 and DMSO, without adding the inventive compound prepared above. A percent inhibition on the formation of beta-amyloid fibrils was calculated in accordance with the following equation, and IC50 was calculated by using GraphPad Prism version 4.03 Program.
% Inhibition=[1−(C−D)/(A−B)]×100
A (control group)=fluorescence intensity in a group treated with PBS solution, Aβ42 and DMSO
B (blank)=fluorescence intensity in a group treated with PBS solution and DMSO
C (experimental group)=fluorescence intensity in a group treated with PBS solution, Aβ42, the inventive compound and DMSO
D (compensation value to the experimental group) =fluorescence intensity in a group treated with PBS solution, the inventive compound and DMSO

[1] = Passage test through the blood-brain barrier (brain tissue concentration); format: in vivo, ICR mice and SD rats; conditions: brain; read-out: passage ability compared with plasma (blood-brain barrier)
Protocol: Three 7 week-old ICR mice (weight: approximately 30 g) and three 8 week-old SD rats (weight: approximately 250 g) were used per test group. A solution prepared by dissolving a hydrochloride salt of the compound of Example 3 in excipient (DMSO/Tween 20/saline: 0.1/0.6/2.3, v/v/v) was administered to each experimental animal. The test compound was intravenously administered in an amount of 5 mL per kg of body weight through the fine vein or orally administered in an amount of 10 mL per kg of body weight.
At 0.5, 1, 2, 4, 10 and 24 hrs after the administration of the test compound, the mice and rats were subjected to insufflations narcosis using isoflorane, followed by cutting the abdomen open. Subsequently, 1 mL of blood was collected from abdominal veins into the tube containing heparin (1000 IU/mL, 3 μL). The obtained blood samples were centrifuged for 2 min at 12,000 rpm to obtain plasma. The obtained plasmas were kept in a freezer at −80° C. until the analysis.
The mice and rats from which the blood samples were obtained were subjected to bloodletting, and then, the brain tissues of the mice and rats was collected. The brain tissue thus obtained was washed with physiological saline 1 or 2 times to remove blood. The weight of the brain tissue was measured after the removal of adipose tissue and peripheral tissue. 4% bovine serum albumin (BSA) solution diluted with 10-fold was added to the brain tissue. The resulting solution was subjected to homogenization using a homogenizer. The diluted homogenate thus obtained was placed in 2 mL tube and was kept in a freezer at −80° C. until the analysis. All of the treatments to the sample were performed in ice.
(§1) 50 μL of plasma was placed in a 2.0 mL tube with a cap (Eppendorf Co.). An internal standard solution and 1 mL of ethyl acetate as an extract solvent were added to the resulting solution. The resulting solution was mixed by using thermomixer (Eppendorf Co.) for 5 min at 1400 rpm, and then subjected to centrifugation (Eppendorf Co.). The supernatant was collected and concentrated at 35° C. by using a cyclone. The residue was re-dissolved in 50 μL of mobile phase and 5 μL of the resulting solution was injected into LC/MS and analyzed.
In Table 3, “iv” refers to intravenous injection; “po” refers to per oral; “AUC plasma” refers to an area under the plasma level-time curve; “Cmax” refers to a maximum plasma concentration; “Tmax” refers to a time to reach Cmax; “BA” refers to bioavailability (%) according to Equation 2 below; “AUC Brain” refers to an area under the brain tissue level-time curve; and “AUCBrain/AUCPlasma” refers to a passage rate of the test compound to the brain.

[2] = Pharmacokinetics test in mice (dose-dependent); format: in vivo, ICR mice; conditions: for AUC ratio / Cmax ratio / AUC / Cmax / Tmax / half-life: po; for AUC / Cmax / Tmax / half-life: ICR, mouse, plasma
Protocol: Two 6 week-old ICR mice (weight: approximately 25 g) were used per test group. A solution prepared by dissolving the compound of Example 3 in distilled water was administered to each experimental animal. The test compound was orally administered in an amount of 10 mL per kg of body weight.
At 0.5, 1, 2, 4, 10 and 24 hrs after the oral administration of the test compound, the blood was collected from jugular veins into a tube containing heparin (1,000 IU/mL, 3 μL). The obtained plasmas were centrifuged (12,000 rpm, 2 min, Eppendorf), and contained in a freezer at −80° C. until analysis.
as §1, with “cap (Eppendorf Co.) and acidified by adding 20 μL of 0.1% formic acid thereto. An internal” for “cap (Eppendorf Co.). An internal”
In Table 4, “po” refers to per oral; “AUC plasma” refers to an area under the plasma level-time curve; “Cmax” refers to a maximum plasma concentration; and “Tmax” refers to a time to reach Cmax.

T1 sequence (P05067 672-713 limits assumed): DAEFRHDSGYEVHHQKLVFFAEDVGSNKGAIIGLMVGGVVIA

Q: With COc1cc(/C=C/C(=O)CC(=O)/C=C/c2ccc(O)c(OC)c2)ccc1O [Curcumin, curcumin, reference compound] as the compound, how does the inhibition at 10 µM (beta-amyloid 42 (Aβ42)) read?
A: ≥ 70%

Q: What does the source list for CN(C)CCCOc1ccc2cc(/C=C/c3ccc(N(C)C)cc3)oc2c1 [Example 3, (E)-6-(3-dimethylaminopropoxy)-2-(4-dimethylaminostyryl)benzofuran]?
A: Kp [1]: ≥ 1; AUC ratio ([2]; 10 mg/kg, relative to AUC at 10 mg/kg): 1.0; AUC ratio ([2]; 10 mg/kg, relative to AUC at 10 mg/kg, listed as Compound of Example 3, 10 mg/kg): 1; Cmax ratio ([2]; 10 mg/kg, relative to Cmax at 10 mg/kg): 1; AUC ratio ([2]; 30 mg/kg, AUC (30 mg/kg)/AUC (10 mg/kg)): 4.2; Cmax ratio ([2]; 30 mg/kg, Cmax (30 mg/kg)/Cmax (10 mg/kg)): 4.7; AUC ratio ([2]; 100 mg/kg, AUC (100 mg/kg)/AUC (10 mg/kg)): 10.4; Cmax ratio ([2]; 100 mg/kg, Cmax (100 mg/kg)/Cmax (10 mg/kg)): 9.4; AUC ([2]; 10 mg/kg): 443 ng·h/mL; Cmax ([2]; 10 mg/kg): 40.4 ng/mL; Tmax ([2]; 10 mg/kg): 0.5 h; half-life ([2]; 10 mg/kg): 4.9 h; AUC ([2]; 30 mg/kg): 1890 ng·h/mL; Cmax ([2]; 30 mg/kg): 188 ng/mL; Tmax ([2]; 30 mg/kg): 2 h; half-life ([2]; 30 mg/kg): 5.4 h; AUC ([2]; 100 mg/kg): 4580 ng·h/mL; Cmax ([2]; 100 mg/kg): 378 ng/mL; Tmax ([2]; 100 mg/kg): 4 h; half-life ([2]; 100 mg/kg): 23.5 h; dose-dependence of pharmacokinetics (linearity) ([2]; oral 10, 30 and 100 mg/kg): linear pharmacokinetics

Q: Which inhibition at 10 µM (beta-amyloid 42 (Aβ42)) does the source give for CN(C)c1ccc(/C=C/c2cc3ccc(OCCCN4CCCCC4)cc3o2)cc1 [Example 11, (E)-6-(3-(1-piperidinyl)propoxy)-2-(4-dimethylaminostyryl)benzofuran] here?
A: < 50%

Q: For CN(C)c1ccc(/C=C/c2cc3ccc(OCCCc4ccncc4)cc3o2)cc1 [Example 17, (E)-6-(3-(4-pyridinyl)propoxy)-2-(4-dimethylaminostyryl)benzofuran], which inhibition at 10 µM (beta-amyloid 42 (Aβ42)) is on record?
A: < 50%

Q: Which results are given for COc1ccc2cc(/C=C/c3ccc(N(C)CCF)cc3)oc2c1 [Example 20, (E)-6-(methoxy)-2-(4,4′-methyl(2-fluoroethyl)aminostyryl)benzofuran]?
A: Aβ42 % inhibition compared with comparative compound curcumin (beta-amyloid 42 (Aβ42)): equal to or greater than that of the comparative compound, curcumin; inhibition at 10 µM (beta-amyloid 42 (Aβ42)): ≥ 70%

Q: For CN(C)c1ccc(/C=C/c2cc3ccc(OCCN4CCOC4)cc3o2)cc1 [Example 21, (E)-6-(2-(3-oxazolidinyl)ethoxy)-2-(4-dimethylaminostyryl)benzofuran hydrochloride], which inhibition at 10 µM (beta-amyloid 42 (Aβ42)) is on record?
A: 50 to 70%

Q: For CCN(CC)CCCOc1ccc2cc(/C=C/c3ccc(N(C)C)cc3)oc2c1 [Example 24, (E)-6-(3-diethylaminopropoxy)-2-(4-dimethylaminostyryl)benzofuran hydrochloride], which inhibition at 10 µM (beta-amyloid 42 (Aβ42)) is on record?
A: 50 to 70%

Q: What does the source list for CN(C)c1ccc(/C=C/c2cc3ccc(OCCCN4CCOCC4)cc3o2)cc1.Cl [Example 25, (E)-6-(3-(4-morpholinopropoxy))-2-(4-dimethylaminostyryl)benzofuran hydrochloride]?
A: Aβ42 % inhibition compared with comparative compound curcumin (beta-amyloid 42 (Aβ42)): equal to or greater than that of the comparative compound, curcumin; % Inhibition (10 μM) (beta-amyloid 42 (Aβ42)): *** (*** (70%≦))

Q: Which “% Inhibition (10 μM)” value (beta-amyloid 42 (Aβ42)) does the source give for CN(C)c1ccc(/C=C/c2cc3ccc(OCCN4CCOCC4)cc3o2)cc1.Cl [Example 27, (E)-6-(2-(4-morpholinoethoxy))-2-(4-dimethylaminostyryl)benzofuran hydrochloride] here?
A: ** (** (50% ≦ × < 70%))

Q: For C[C@@H]1CN(CCCOc2ccc3cc(/C=C/c4ccc(N(C)C)cc4)oc3c2)C[C@H](C)O1 [Example 28, (E)-6-(3-((2S,6R)-2,6-dimethylmorpholino)propoxy)-2-(4-dimethylaminostyryl)benzofuran hydrochloride], which inhibition at 10 µM (beta-amyloid 42 (Aβ42)) is on record?
A: < 50%

Q: For CN(C)c1ccc(/C=C/c2cc3ccc(OCCN4CCCCC4)cc3o2)cc1.Cl [Example 29], which “% Inhibition (10 μM)” value (beta-amyloid 42 (Aβ42)) is on record?
A: * (* (<50%))

Q: With CN(C)c1ccc(/C=C/c2cc3ccc(OCC4CCCCN4C)cc3o2)cc1 (stereo not shown) [Example 31, (E)-6-(1-methyl-2-piperidinylmethoxy)-2-(4-dimethylaminostyryl)benzofuran hydrochloride] as the compound, how does the inhibition at 10 µM (beta-amyloid 42 (Aβ42)) read?
A: < 50%

Q: For CN1CCCC(COc2ccc3cc(/C=C/c4ccc(N(C)C)cc4)oc3c2)C1 (stereo not shown) [Example 32, (E)-6-(1-methyl-3-piperidinylmethoxy)-2-(4-dimethylaminostyryl)benzofuran hydrochloride], which inhibition at 10 µM (beta-amyloid 42 (Aβ42)) is on record?
A: < 50%

Q: Which inhibition at 10 µM (beta-amyloid 42 (Aβ42)) does the source give for CN1CCN(CCCOc2ccc3cc(/C=C/c4ccc(N(C)C)cc4)oc3c2)CC1 [Example 33, (E)-6-(3-(4-methyl-1-piperazinyl)propoxy)-2-(4-dimethylaminostyryl)benzofuran hydrochloride] here?
A: < 50%

Q: With CN(C)c1ccc(/C=C/c2cc3ccc(OCCCN4CCSCC4)cc3o2)cc1.Cl [Example 34, (E)-6-(3-(4-thiomorpholinopropoxy))-2-(4-dimethylaminostyryl)benzofuran hydrochloride] as the compound, how does the “% Inhibition (10 μM)” value (beta-amyloid 42 (Aβ42)) read?
A: * (* (<50%))

Q: For CN(C)c1ccc(/C=C/c2cc3ccc(OCCCN4CCS(=O)(=O)CC4)cc3o2)cc1.Cl [Example 35, (E)-6-(3-(thiomorpholine-1,1-dioxide)propoxy)-2-(4-dimethylaminostyryl)benzofuran hydrochloride], which “% Inhibition (10 μM)” value (beta-amyloid 42 (Aβ42)) is on record?
A: * (* (<50%))

Q: Which inhibition at 10 µM (beta-amyloid 42 (Aβ42)) does the source give for CN(C)c1ccc(/C=C/c2cc3ccc(OCCCc4ccccn4)cc3o2)cc1 [Example 37, (E)-6-(3-(2-pyridinyl)propoxy)-2-(4-dimethylaminostyryl)benzofuran hydrochloride] here?
A: < 50%

Q: With CN(C)c1ccc(/C=C/c2cc3ccc(OCCCc4cccnc4)cc3o2)cc1 [Example 38, (E)-6-(3-(3-pyridinyl)propoxy)-2-(4-dimethylaminostyryl)benzofuran hydrochloride] as the compound, how does the inhibition at 10 µM (beta-amyloid 42 (Aβ42)) read?
A: < 50%
